Assay [1] has as its target T1, muscle-type nicotinic acetylcholine receptor (nAChR) (Torpedo marmorata, UniProt P02711+Q6S3H8+Q6S3H9+Q6S3I0).
T1 construct: gene CHRNA1; native heteropentameric receptor purified from electroplaques, reconstituted in asolectin lipids and transplanted to Xenopus oocytes; with beta1, gamma and delta nAChR subunits (CHRNB1, CHRNG, CHRND) with two alpha1
The assay can be described thus: two-electrode voltage clamp, ACh concentration-current curve in Xenopus oocytes bearing transplanted nAChRs. The format is cell-based. A general note: In two-electrode clamp one electrode senses voltage and the other passes current.

In assay [2] the target is T1, muscle-type nicotinic acetylcholine receptor (nAChR). The assay can be described thus: two-electrode voltage clamp of ACh-elicited peak currents ([…] ACh) in Xenopus oocytes bearing transplanted nAChRs. Format: cell-based.

From article PMC6092513, “Mechanisms Underlying the Strong Inhibition of Muscle-Type Nicotinic Receptors by Tetracaine” (Frontiers in Molecular Neuroscience, 2018) come the findings set out here.

Molecules are shown by their SMILES.

A word on the EC50: it is the concentration at which the effect is half-maximal. What is called IC50 is the concentration that gives 50% inhibition. A high value points to weaker potency.

T1 sequence (P02711 25-461): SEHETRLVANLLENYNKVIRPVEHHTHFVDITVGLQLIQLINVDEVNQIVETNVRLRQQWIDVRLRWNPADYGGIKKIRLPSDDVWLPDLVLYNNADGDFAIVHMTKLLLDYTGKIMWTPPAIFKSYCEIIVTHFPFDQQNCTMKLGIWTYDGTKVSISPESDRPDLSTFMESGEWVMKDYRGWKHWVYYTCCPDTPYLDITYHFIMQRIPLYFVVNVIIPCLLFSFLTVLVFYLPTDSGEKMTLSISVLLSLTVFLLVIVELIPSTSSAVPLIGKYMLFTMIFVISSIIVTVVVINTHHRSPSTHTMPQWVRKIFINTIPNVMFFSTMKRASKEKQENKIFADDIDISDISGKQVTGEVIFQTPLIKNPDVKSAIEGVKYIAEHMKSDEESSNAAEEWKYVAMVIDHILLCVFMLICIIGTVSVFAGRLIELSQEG
T1 sequence (Q6S3I0 25-493): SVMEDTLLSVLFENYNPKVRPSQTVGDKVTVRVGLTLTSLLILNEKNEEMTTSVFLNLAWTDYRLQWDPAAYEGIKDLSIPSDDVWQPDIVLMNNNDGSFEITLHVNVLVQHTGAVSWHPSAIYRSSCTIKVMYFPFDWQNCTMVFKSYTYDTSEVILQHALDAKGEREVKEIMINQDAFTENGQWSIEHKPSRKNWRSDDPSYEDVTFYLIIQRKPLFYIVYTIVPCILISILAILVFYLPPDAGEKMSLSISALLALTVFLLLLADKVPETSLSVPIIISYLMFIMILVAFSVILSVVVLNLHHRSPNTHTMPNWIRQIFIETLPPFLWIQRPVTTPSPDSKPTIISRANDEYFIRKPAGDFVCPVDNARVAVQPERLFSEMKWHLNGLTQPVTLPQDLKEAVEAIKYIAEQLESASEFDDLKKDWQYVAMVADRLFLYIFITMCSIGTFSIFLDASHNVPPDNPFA
T1 sequence (Q6S3H9 18-505): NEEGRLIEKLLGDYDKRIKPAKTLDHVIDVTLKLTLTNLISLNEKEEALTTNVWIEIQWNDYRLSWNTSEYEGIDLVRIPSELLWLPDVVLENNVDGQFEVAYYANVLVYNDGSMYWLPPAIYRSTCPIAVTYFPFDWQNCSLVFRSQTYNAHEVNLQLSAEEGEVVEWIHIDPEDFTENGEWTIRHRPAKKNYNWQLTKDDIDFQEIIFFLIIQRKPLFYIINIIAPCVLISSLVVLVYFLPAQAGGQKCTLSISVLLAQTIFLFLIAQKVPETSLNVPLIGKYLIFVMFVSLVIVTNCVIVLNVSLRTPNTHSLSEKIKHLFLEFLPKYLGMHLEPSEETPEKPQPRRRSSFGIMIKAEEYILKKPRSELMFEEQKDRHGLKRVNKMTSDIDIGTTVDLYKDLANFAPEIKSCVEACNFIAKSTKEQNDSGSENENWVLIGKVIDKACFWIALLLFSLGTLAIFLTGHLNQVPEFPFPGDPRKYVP
T1 sequence (Q6S3H8 22-522): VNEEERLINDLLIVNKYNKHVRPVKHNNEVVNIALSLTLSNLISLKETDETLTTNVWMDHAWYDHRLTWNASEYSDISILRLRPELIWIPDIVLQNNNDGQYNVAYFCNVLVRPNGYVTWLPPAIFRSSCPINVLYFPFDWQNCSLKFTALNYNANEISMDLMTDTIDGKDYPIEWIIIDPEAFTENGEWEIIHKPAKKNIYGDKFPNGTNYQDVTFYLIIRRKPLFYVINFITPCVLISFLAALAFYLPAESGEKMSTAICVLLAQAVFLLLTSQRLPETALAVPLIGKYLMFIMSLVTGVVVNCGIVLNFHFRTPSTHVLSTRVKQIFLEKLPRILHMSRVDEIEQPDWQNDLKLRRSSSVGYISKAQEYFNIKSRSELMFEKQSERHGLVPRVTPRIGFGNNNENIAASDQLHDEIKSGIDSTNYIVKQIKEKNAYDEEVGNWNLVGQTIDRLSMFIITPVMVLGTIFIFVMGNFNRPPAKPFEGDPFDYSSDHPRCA

In assay [1], `CC(=O)OCC[N+](C)(C)C` [ACh, acetylcholine] yielded an EC50 of 37 µM.

For the compound `CCCCNc1ccc(C(=O)OCCN(C)C)cc1` [Ttc, 2-(dimethylamino)ethyl 4-(butylamino)benzoate], in assay [2], half-maximal inhibition (IC50) required 700 nM.
